Assay results taken from patent publication US11439713B2, “Method for creating a renal injury model to screen molecules for the treatment of renal injury” (BAYER AKTIENGESELLSCHAFT, priority 2017, dated 2022).
“Also recorded” adds a separate entry of the source.

Tests used:
C57Bl/6 mice [1] = test: AGISHA model with AngII as injury inducer (ACR in urine); type: in vivo; conditions: for ACR in urine collected for 4 hours after AngII bolus injections: vs NaCl control group; for ACR in urine collected for 4 hours after first AngII bolus injections, experimental day 1: vs NaCl group
Description: Five groups with 10-12 mice per group (C57Bl/6, Charles River Laboratories, 6-7 weeks old) were set for one experiment. After delivery, animals remained in a temperature- and light-controlled room with standardized mouse chow and water ad libitum for a one week acclimatization period, following guidelines of local governmental institutions (LANUV Germany). The groups were divided as follows (see FIG. 1): • 1. Control group without AngII bolus injection, but with control saline and additional (oral) administration of drug vehicle (10% ethanol, 40% solutol, 50% water or saline). • 2. AngII group, treated with AngII in normal saline, and drug vehicle. AngII administration occurred in two bolus injections (i.v.+s.c.) of 10 μg (5 μg i.v.+5 μg s.c.), 16 μg (8 μg i.v.+8 μg s.c.) and 20 μg (10 μg i.v.+10 μg s.c.) per mouse, where the first bolus was injected intravenously and the second bolus subcutaneously. The drug vehicle was administered orally.
3. Candidate groups 3 and 4: AngII injection and additional treatment with the investigated drug/drugs. For substance testing, drugs or appropriated vehicles were administered orally, via i.v., s.c., or i.p. Administration occurred prior to or after AngII-injection. For example, investigated drug/drugs were given orally 30 minutes before the induction of the injury. • 4. Group 5 is the positive control group Animals were injected with AngII and treated orally with Losartan 30 mg/kg. Losartan is an AngII receptor blocker AT1 (Pieter B M et al, Pharma. Rev., 1993, Kang P M et al, Progress in Cardiology, 1994).
After AngII injection animals were placed in metabolic cages (Technoplast, Italy) for urine collection for up to 4 hours. At the end of the experiment the urine was analyzed to quantify the ACR. More specifically, the collected urine was analyzed using an automatic analyzer for urinary albumin as well as urinary creatinine (Coban® Integra 400, Roche, Basel, SUI) or using the Mouse albumin ELISA kit (ABCAM, Cambridge, UK). […] The AGISHA model was performed in 3 identical cycles with a one-week break for recovery.
Negative and positive control experiment. To confirm the findings shown in FIG. 2-4, the mode of action in AGISHA was investigated. In the following experiment, three of the animal groups were pre-treated with three different drugs by oral application 30 minutes before administration of injury inducer (see FIG. 5). • 1) Enalapril 10 mg/kg, an angiotensin-converting enzyme (ACE) inhibitor, is standard of care for high blood pressure. It was used as positive modulator control 1 of the renin-angiotensin system (RAS) in the AGISHA model. • 2) Losartan potassium, 30 mg/kg, angiotensin II type I receptor (AT1) antagonist, standard of care for high blood pressure (Kang et al, 1994; Sica D A et al, Clin Parmacokinet., 2005) was used as positive modulator control 2 of the RAS system in the AGISHA model. • 3) Tivozanib, 3 mg/kg, vascular endothelial grow factor receptor tyrosine kinase inhibitor (Campas C et al, Drugs Fut., 2009) was used as negative modulator of the RAS system during AGISHA model. […]
The experiment was performed as described in example 5, except that the sGC stimulator 5-cyclopropyl-2-[1-(2-fluorobenzyl)-1H-pyrazolo[3,4-b]pyridin-3-yl]pyrimidin-4-amine was used for treatment. […] Losartan (30 mg/kg) was used as positive control.

[2] = test system: rat model of hypertension; conditions: Hoffmann L S et al. 2015; cited from earlier work
C57Bl/6 mice [3] = test: AGISHA model with Vasopressin (AVP) as injury inducer (ACR in urine); type: in vivo; conditions: AVP 10 μg i.v.+10 μg s.c.; vs NaCl
mice [4] = test: GFR-based model with AVP and Sinestrin-FITC; type: in vivo
Protocol: A similar setup (FIG. 23) was used with AVP (Sigma-Aldrich, Mo.) at a dose of 35 μg, i.e. using a first bolus with 15 μg AVP, injected i.v. in combination with Sinestrin-FITC 150 mg/kg (50 ul+50 ul) and using a second bolus of 20 μg AVP, 100 uL, injected i.v. As before GFR, was decreased by AVP compared with the control group.

mice [5] = test: GFR-based model with AngII and Sinestrin-FITC (GFR acute modulation); type: in vivo; conditions: for GFR 2 hrs after AngII bolus injection: vs control group
Description: Acute GFR modulation is a relevant phenomenon in the field of nephrology (Fergusan and […], Clin. Chem., 58(4), 2012, p. 680-689). GFR is the major readout parameter for chronic kidney disease (CKD) stage assessment (Lopez-Giacoman and Madero, World J Nephrol. 4(1), 2015, 57-73). The GFR is also a very stable and robust physiological parameter that is subject to positive and negative feedback regulation. The following protocol and experimental setup (FIG. 21) was established to model acute GFR modulation. 1. Control group without AngII bolus injection, but with control saline (0.9%)+[…] 150 mg/kg and additional s c administration of 0.9% NaCl (100 μl+100 μl) 2. AngII group, treated with AngII in two bolus injections: First bolus of 20 μg/mouse of AngII in normal saline administered in combination with […] 150 mg/kg, 50 μl+50 μl, injected via tail vein. Second bolus injected s.c. comprising 20 μg AngII, 100 μl. 3. Losartan group was treated orally with 30 mg/kg of Losartan Potassium, 30 min prior to the AngII injury. AngII injury occurred in two bolus injections as described for the AngII group (total 40 μg). 1. Control group without AngII bolus injection, but with control saline (0.9%)+[…] 150 mg/kg and additional s.c. administration of 0.9% NaCl (100 μl+100 μl) 2. AngII group, treated with AngII in two bolus injections: First bolus of 20 μg/mouse of AngII in normal saline administered in combination with […] 150 mg/kg, 50 μl+50 μl, injected via tail vein. Second bolus injected s.c. comprising 30 μg AngII, 100 μl. 3. Losartan group was treated orally with 30 mg/kg of Losartan Potassium, 30 min prior to the AngII injury. AngII injury occurred in two bolus injections as described for the AngII group (total 50 μg). For substance testing, animals were pre-treated with the respective drugs or vehicles 30 min before AngII-injection, via oral gavage, s.c, i.p., or tail vein injection. Subsequently, […] mix bolus was administered to the animals with the tracer (FIG. 21).

C57Bl/6/J male mice = test: GFBI test model with AngII (transcutaneous fluorescence of Ficoll-FITC); type: in vivo; conditions: for Half-life of the fluorescent molecule in the blood 2 h after AngII bolus injection: vs control
Protocol: After delivery, C57Bl/6/J male mice remained in a temperature- and light-controlled room with standardized mouse chow and water ad libitum for a one week acclimatization period, following guidelines of local governmental institutions (LANUV Germany). C57Bl/6/J mice (6-7 weeks) received an intravenous mixture of FITC-FICOLL 70 kDa (Sigma) and 10 μg AngII mix 100 μL, followed by a 10 μg (100 μL) subcutaneous AngII bolus as described in example 1. The groups were divided as follows, see FIG. 17:
1. Control group without AngII bolus injection, but with control saline 0.9%+Ficoll-FITC 150 mg/kg and additional s c administration of a bolus of NaCl 0.9%.
2. AngII group, treated with AngII in two bolus injections (10 μg/mouse of AngII+Ficoll-FITC, 150 mg/kg, both dissolved in 0.9% NaCl, first bolus injected i.v. via tail vein (5 μg AngII) and a second subcutaneous bolus injection (5 μg AngII).
3. AngII group, treated with AngII in two bolus injections (20 μg/mouse total AngII+Ficoll-FITC, 150 mg/kg 150 mg/kg, both dissolved in 0.9% NaCl, first bolus injected i.v. via tail vein (10 μg AngII) and a second subcutaneous bolus injection (10 μg AngII).
TF of the FICOLL-FITC was detected via the transcutaneous method developed by MediBeacon Inc. (MediBeacon Inc., Mo., USA). In brief: all experimental animals were shaved with standard mask anesthesia 1 h before the determination of TF for the FICOLL-FITC Immediately after the injury induction the portable transcutaneous measurement device was placed on the left dorsal back side of the animal for 2 hours. The results were analyzed with the MediBeacon Inc. software. […] The decay of the Ficoll-FITC dye was visualized as a flat line, with a half-life of ca. 396 minutes.

Nc1nc(-c2nn(Cc3ccccc3F)c3ncccc23)ncc1C1CC1 [5-cyclopropyl-2-[1-(2-fluorobenzyl)-1H-pyrazolo[3,4-b]pyridin-3-yl]pyrimidin-4-amine]
Reduction of ACR (C57Bl/6 mice [1]; 1 mg/kg orally prior to AngII): 54% | AngII induced ACR, mean±SD (C57Bl/6 mice [1]; 1 mg/kg orally prior to AngII 10 μg i.v.+10 μg s.c.): 50 ± 49 µg/mg | AngII induced ACR, mean±SD (C57Bl/6 mice [1]; 3 mg/kg orally prior to AngII 10 μg i.v.+10 μg s.c. (sGC stimulator experiment)): 42 ± 35 µg/mg | Reduction of ACR (C57Bl/6 mice [1]; 3 mg/kg orally prior to AngII (sGC stimulator experiment)): 62% | Effect on angiotensin II-induced cardiovascular remodeling [2]: ameliorates angiotensin II-induced cardiovascular remodeling

NC(=O)CC[C@@H]1NC(=O)[C@H](Cc2ccccc2)NC(=O)[C@H](Cc2ccc(O)cc2)NC(=O)[C@@H](N)CSSC[C@@H](C(=O)N2CCC[C@H]2C(=O)N[C@@H](CCCN=C(N)N)C(=O)NCC(N)=O)NC(=O)[C@H](CC(N)=O)NC1=O [AVP]
ACR in urine collected for 4 hours after AVP bolus injection (C57Bl/6 mice [3]): significant increase of ACR | GFR 2 hrs after AVP bolus injection (mice [4]; AVP 35 μg (15 μg i.v. + 20 μg second bolus), vs control group): decreased; also recorded: significant decrease in GFR

CCCCc1nc(Cl)c(CO)n1Cc1ccc(-c2ccccc2-c2nn[nH]n2)cc1 [Losartan]
Reduction of AngII induced ACR (C57Bl/6 mice [1]; Losartan 30 mg/kg orally, positive control, AngII 10 μg i.v.+10 μg s.c.): around 90% | Effect on AngII-induced ACR induction (C57Bl/6 mice [1]; Losartan 30 mg/kg orally, FIG. 2 experiment): AngII bolus had no effect on ACR; also recorded: prevents AngII-induced ACR induction | Effect on ACR induced by AngII (C57Bl/6 mice [1]; oral 30 minutes before AngII 10 μg i.v.+10 μg s.c., Enalapril 10 mg/kg, Losartan potassium 30 mg/kg, Tivozanib 3 mg/kg, FIG. 6): highly significant reduction of AngII induced injury | Effect on ACR induced by AngII (C57Bl/6 mice [1]; oral 30 minutes before AngII 10 μg i.v.+10 μg s.c., Enalapril 10 mg/kg, Losartan potassium 30 mg/kg, Tivozanib 3 mg/kg, FIG. 6, listed as Losartan potassium): strongest effect | Effect on ACR induced by AngII (C57Bl/6 mice [1]; pre-treatment orally, AngII 10 μg i.v.+10 μg s.c., OGT 2115 40 mg/kg, Losartan Potassium 30 mg/kg, FIG. 10): highly significant reduction of AngII induced injury | Effect on AngII induced loss of GFR (mice [5]; Losartan Potassium 30 mg/kg orally 30 min prior to AngII total 40 μg): AngII bolus had no effect on the GFR; also recorded: able to completely reverse the effect | Effect on AngII induced loss of GFR (mice [5]; Losartan Potassium 30 mg/kg orally 30 min prior to AngII total 50 μg): restored the GFR; also recorded: significant recovery of AngII induced loss of GFR | Effect on AVP induced loss of GFR (mice [4]; pre-treatment with Losartan 30 mg/kg, AVP 35 μg): did not restore the normal GFR; also recorded: did not restore or prevent the AVP induced loss of GFR

Asp-Arg-Val-Tyr-Ile-His-Pro-Phe (DRVYIHPF; printed: Asp-Arg-Val-Tyr-Ile-His-Pro-Phe) [AngII, human angiotensin II peptide hormone, used as renal injury inducer]
ACR in urine collected for 4 hours after AngII bolus injections (C57Bl/6 mice [1]; AngII 8 μg i.v.+8 μg s.c.): significant induction of ACR | ACR in urine collected for 4 hours after AngII bolus injections (C57Bl/6 mice [1]; AngII 10 μg i.v.+10 μg s.c.): significant induction of ACR; also recorded: significant increase of ACR | ACR on third experimental day after changed order of stimuli (C57Bl/6 mice [1]; cross AGISHA, AngII 5 μg dose (group 1) and 10 μg dose (group 2)): dose dependent increase of injury | ACR in urine collected for 4 hours after first AngII bolus injections, experimental day 1 (C57Bl/6 mice [1]; cross AGISHA, AngII 5 μg i.v.+5 μg s.c.): significantly increased | ACR in urine collected for 4 hours after first AngII bolus injections, experimental day 1 (C57Bl/6 mice [1]; cross AGISHA, AngII 10 μg i.v.+10 μg s.c.): significantly increased | ACR on day 2, 24 hours after first induction of acute glomerular injury (C57Bl/6 mice [1]; cross AGISHA, after AngII 5 μg or 10 μg dose): For none of the groups the analysis shows a detectable ACR | Half-life of the fluorescent molecule in the blood 2 h after AngII bolus injection (C57Bl/6/J male mice; AngII 10 μg): decrease in half-life of the fluorescent molecule was significant | Half-life of the fluorescent molecule in the blood 2 h after AngII bolus injection (C57Bl/6/J male mice; AngII 20 μg): decrease in half-life of the fluorescent molecule was significant | Half-life of FICOLL-FITC transcutaneous fluorescence, representative curve (C57Bl/6/J male mice; animals treated with AngII, control (0.9% NaCl) ca. 396 minutes): ca. 180 min | GFR 2 hrs after AngII bolus injection (mice [5]; total 40 μg AngII (20 μg i.v.+20 μg s.c.)): decreased but not significantly decreased; also recorded: decrease in GFR | GFR 2 hrs after AngII bolus injection (mice [5]; total 50 μg AngII (20 μg i.v.+30 μg s.c.)): highly significant reduction of the GFR; also recorded: significantly reduced
